Measured values taken from BigSolDB 2.1.

COC(=O)c1ccnc(N)c1
solubility (mole fraction)
Settings | 278.15 K | 283.15 K | 288.15 K | 293.15 K | 298.15 K | 303.15 K | 308.15 K | 313.15 K | 318.15 K | 323.15 K
in DMF | 0.00726 | 0.0087 | 0.0105 | 0.0126 | 0.0152 | 0.0183 | 0.0216 | 0.0249 | 0.0292 | 0.0339
in acetonitrile | 0.00539 | 0.00665 | 0.00838 | 0.0104 | 0.0127 | 0.015 | 0.0177 | 0.0206 | 0.0241 | 0.0277
in ethanol | 0.00321 | 0.00385 | 0.0047 | 0.00577 | 0.00694 | 0.00821 | 0.00976 | 0.0114 | 0.0132 | 0.0154
in isopropanol | 0.00385 | 0.0048 | 0.00601 | 0.00728 | 0.00889 | 0.0104 | 0.0122 | 0.0141 | 0.0163 | 0.019
in methanol | 0.00173 | 0.0021 | 0.00255 | 0.00312 | 0.00379 | 0.00453 | 0.00557 | 0.00665 | 0.00798 | 0.00946
in n-propanol | 0.00422 | 0.00528 | 0.00655 | 0.00813 | 0.00977 | 0.0117 | 0.0137 | 0.0163 | 0.019 | 0.0217
in toluene | 0.00824 | 0.00987 | 0.0122 | 0.0147 | 0.0177 | 0.0208 | 0.0243 | 0.0282 | 0.0327 | 0.0377
in water | 0.000935 | 0.00117 | 0.00142 | 0.00178 | 0.00217 | 0.00258 | 0.00302 | 0.00356 | 0.00416 | 0.00489
